Measured values published in patent US9580432B2, “Fused pyrimidine compound or salt thereof” (TAIHO PHARMACEUTICAL CO., LTD., priority 2013, dated 2017).

Experiments:
[1] = tested on: purified recombinant human EGFR protein / BTK; test: BTK inhibition selectivity compared with EGFR kinase inhibitory activity (in vitro); type: biochemical; details: EGFR assay ATP 1.5 μM
Description: 1) Measurement of BTK Inhibitory Activity
2) Measurement of EGFR Inhibitory Activity
Therefore, a biotinated peptide (biotin-[…]) was produced by referring to the amino acid sequence of the peptide. The purified recombinant human EGFR protein used in the test was purchased from Carna Biosciences, Inc.
With regard to the measurement of the inhibitory activity of the compounds, firstly, the compounds of the present invention were diluted stepwise with dimethyl sulfoxide (DMSO). […] The reaction was terminated by adding EDTA thereto in order to obtain a final concentration of 24 mM. Subsequently, a detection liquid containing Eu-labeled anti-phosphorylated tyrosine antibody PT66 (PerkinElmer, Inc.) and […] APC-SA (PerkinElmer, Inc.) was added thereto, and the system was left to stand for 2 hours or longer at room temperature.
3) BTK Inhibition Selectivity

[2] = target: purified recombinant human BTK protein (Homo sapiens (Human), UniProt Q06187); test: Measurement of BTK inhibitory activity (in vitro); type: biochemical; details: FL-PEPTIDE 2 substrate 1 μM, ATP 45 μM, 40 minutes at 25° C.
In short: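 Recombinant human BTK with FL-PEPTIDE 2 substrate (1 μM), 45 μM ATP and 10 mM MgCl2 in 20 mM HEPES pH 7.5, 2 mM DTT, 0.01% Triton X-100, 5% DMSO; 40 min at 25° C. Reaction stopped with 30 mM EDTA. Phosphorylated and unphosphorylated peptide separated and detected by microchannel capillary electrophoresis.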

A431 cells / TMD8 cells = test: Proliferation inhibitory activity against cell lines expressing BTK and EGFR (in vitro), comparison of selectivity; type: cell-based, human; details: ratio from GI50 (nM), 3 days culture, CELLTITER GLO
In short: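 BTK-expressing TMD8 DLBCL cells (RPMI1640/10% FBS) and EGFR-overexpressing A431 epidermoid carcinoma cells (DMEM/10% FBS) cultured 1 day, then exposed to compound (0.2% DMSO final) for 3 days at 37° C. Luminescence read-out; inhibition ratio % = (C−T)/(C−C0)×100, with A431/TMD8 ratio as selectivity index.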

purified recombinant human BTK protein, sequence (Q06187 whole entry): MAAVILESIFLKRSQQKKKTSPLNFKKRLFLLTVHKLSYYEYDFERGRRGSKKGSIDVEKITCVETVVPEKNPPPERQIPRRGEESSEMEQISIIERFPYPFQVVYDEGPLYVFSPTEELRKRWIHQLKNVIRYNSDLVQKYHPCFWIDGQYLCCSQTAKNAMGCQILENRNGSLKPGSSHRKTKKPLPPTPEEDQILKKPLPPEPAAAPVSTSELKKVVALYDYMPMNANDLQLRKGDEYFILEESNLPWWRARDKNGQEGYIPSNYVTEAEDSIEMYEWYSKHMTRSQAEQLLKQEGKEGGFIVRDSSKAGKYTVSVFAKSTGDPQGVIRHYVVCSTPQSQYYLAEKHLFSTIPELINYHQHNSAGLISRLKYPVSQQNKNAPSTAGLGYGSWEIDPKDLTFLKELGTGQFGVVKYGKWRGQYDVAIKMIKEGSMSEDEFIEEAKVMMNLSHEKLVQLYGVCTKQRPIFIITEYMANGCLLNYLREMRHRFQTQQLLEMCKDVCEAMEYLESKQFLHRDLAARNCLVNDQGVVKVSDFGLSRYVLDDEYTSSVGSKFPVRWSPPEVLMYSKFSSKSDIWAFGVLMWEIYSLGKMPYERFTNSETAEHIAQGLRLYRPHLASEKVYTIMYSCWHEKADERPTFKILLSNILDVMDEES

Structure (SMILES)	EGFR inhibitory activity IC50 value (nM)/BTK inhibitory activity IC50 value (nM) [1]	IC50 [2]	A431 cell proliferation inhibition ratio/TMD8 cell proliferation inhibitio ratio (A431 cells / TMD8 cells)
Nc1ncnc2c1c(C(=O)Nc1nc3cc(Cl)ccc3o1)nn2[C@@H]1CCCN(C(=O)/C=C/CN2CCCCC2)C1 [Example 20, (R,E)-4-amino-N-(5-chlorobenzo[d]oxazol-2-yl)-1-(1-(4-(piperidin-1-yl)but-2-enoyl)piperidin-3-yl)-1H-pyrazolo[3,4-d]pyrimidine-3-carboxamide]	138.2	0.801 nM	>19120.5
CN(C)C/C=C/C(=O)N1CC[C@@H](n2nc(C(=O)Nc3nc4cc(Cl)ccc4o3)c3c(N)ncnc32)C1 [Example 32, (R,E)-4-amino-N-(5-chlorobenzo[d]oxazol-2-yl)-1-(1-(4-(dimethylamino)but-2-enoyl)pyrrolidin-3-yl)-1H-pyrazolo[3,4-d]pyrimidine-3-carboxamide]	43.1	0.634 nM	>11123.5
C=CC(=O)N1CC[C@@H](n2nc(C(=O)Nc3nc4cc(C#N)ccc4o3)c3c(N)ncnc32)C1 [Example 39, (R)-1-(1-acryloylpyrrolidin-3-yl)-4-amino-N-(5-cyanobenzo[d]oxazol-2-yl)-1H-pyrazolo[3,4-d]pyrimidine-3-carboxamide]	37.5	1.12 nM	>3510.0
CN(C)C/C=C/C(=O)N1CC[C@@H](n2nc(C(=O)Nc3nc4cc(-c5ccccc5)ccc4o3)c3c(N)ncnc32)C1 [Example 42, (R,E)-4-amino-N-(5-phenylbenzo[d]oxazol-2-yl)-1-(1-(4-(dimethylamino)but-2-enoyl)pyrrolidin-3-yl)-1H-pyrazolo[3,4-d]pyrimidine-3-carboxamide]	19.4	0.771 nM	3934.1
CN(C)C/C=C/C(=O)N1CC[C@@H](n2cc(C(=O)Nc3nc4cc(Cl)ccc4o3)c3c(N)ncnc32)C1 [Example 49, (R,E)-4-amino-N-(5-chlorobenzo[d]oxazol-2-yl)-7-(1-(4-(dimethylamino)but-2-enoyl)pyrrolidin-3-yl) 7H-pyrrolo[2,3-d]pyrimidine-5-carboxamide]	24.8	1.53 nM	>3260.5
CCN(CC)C/C=C/C(=O)N1CC[C@@H](n2cc(C(=O)Nc3nc4cc(Cl)ccc4o3)c3c(N)ncnc32)C1 [Example 51, (R,E)-4-amino-N-(5-chlorobenzo[d]oxazol-2-yl)-7-(1-(4-(diethylamino)but-2-enoyl)pyrrolidin-3-yl) 7H-pyrrolo[2,3-d]pyrimidine-5-carboxamide]	31.1	1.48 nM	>2044.6
Nc1ncnc2c1c(C(=O)Nc1nc3cc(Cl)ccc3o1)cn2[C@@H]1CCN(C(=O)/C=C/CN2CCCCC2)C1 [Example 54, (R,E)-4-amino-N-(5-chlorobenzo[d]oxazol-2-yl)-7-(1-(4-(piperidin-1-yl)but-2-enoyl)pyrrolidin-3-yl) 7H-pyrrolo[2,3-d]pyrimidine-5-carboxamide]	37.1	1.44 nM	>2675.9
C=CC(=O)N1CCCC(Cn2nc(C(=O)Nc3nc4ccccc4o3)c3c(N)ncnc32)C1 (stereo not drawn) [Example 67, 1-((1-acryloylpiperidin-3-yl)methyl)-4-amino-N-(benzo[d]oxazol-2-yl)-1H-pyrazolo[3,4-d]pyrimidine-3-carboxamide]	18.0	14 nM	>2168.7

The next lines start with results.

EGFR inhibitory activity IC50 value (nM)/BTK inhibitory activity IC50 value (nM) [1]	IC50 [2]	Structure (SMILES)	A431 cell proliferation inhibition ratio/TMD8 cell proliferation inhibitio ratio (A431 cells / TMD8 cells)
144.8	0.69 nM	Nc1ncnc2c1c(C(=O)Nc1nc3cc(Cl)ccc3o1)nn2[C@@H]1CCCN(C(=O)/C=C/CN2CCCC2)C1 [Example 19, (R,E)-4-amino-N-(5-chlorobenzo[d]oxazol-2-yl)-1-(1-(4-(pyrrolidin-1-yl)but-2-enoyl)piperidin-3-yl)-1H-pyrazolo[3,4-d]pyrimidine-3-carboxamide]	>17825.3
173.7	1.17 nM	C/C=C/C(=O)N1CC[C@@H](n2nc(C(=O)Nc3nc4cc(Cl)ccc4o3)c3c(N)ncnc32)C1 [Example 25, (R,E)-4-amino-N-(5-chlorobenzo[d]oxazol-2-yl)-1-(1-(but-2-enoyl)pyrrolidin-3-yl)-1H-pyrazolo[3,4-d]pyrimidine-3-carboxamide]	2793.0
21.3	0.566 nM	C=CC(=O)N1CC[C@@H](n2nc(C(=O)Nc3nc4cc(F)ccc4o3)c3c(N)ncnc32)C1 [Example 30, (R)-1-(1-acryloylpyrrolidin-3-yl)-4-amino-N-(5-fluorobenzo[d]oxazol-2-yl)-1H-pyrazolo[3,4-d]pyrimidine-3-carboxamide]	5164.3
79.3	0.79 nM	CCN(CC)C/C=C/C(=O)N1CC[C@@H](n2nc(C(=O)Nc3nc4cc(Cl)ccc4o3)c3c(N)ncnc32)C1 [Example 34, (R,E)-4-amino-N-(5-chlorobenzo[d]oxazol-2-yl)-1-(1-(4-(diethylamino)but-2-enoyl)pyrrolidin-3-yl)-1H-pyrazolo[3,4-d]pyrimidine-3-carboxamide]	>22471.9
35.1	0.792 nM	CC(C)N(C)C/C=C/C(=O)N1CC[C@@H](n2nc(C(=O)Nc3nc4cc(Cl)ccc4o3)c3c(N)ncnc32)C1 [Example 35, (R,E)-4-amino-N-(5-chlorobenzo[d]oxazol-2-yl)-1-(1-(4-(isopropyl(methyl)amino)but-2-enoyl)pyrrolidin-3-yl)-1H-pyrazolo[3,4-d]pyrimidine-3-carboxamide]	>18691.6
10.0	2.09 nM	C=CC(=O)N1CC[C@@H](n2nc(C(=O)Nc3nc4cc(CCOC)ccc4o3)c3c(N)ncnc32)C1 [Example 40, (R)-1-(1-acryloylpyrrolidin-3-yl)-4-amino-N-(5-(2-methoxyethyl)benzo[d]oxazol-2-yl)-1H-pyrazolo[3,4-d]pyrimidine-3-carboxamide]	>3159.6
17.1	0.877 nM	CN(C)C/C=C/C(=O)N1CC[C@@H](n2nc(C(=O)Nc3nc4cc(C(F)(F)F)ccc4o3)c3c(N)ncnc32)C1 [Example 44, (R,E)-4-amino-N-(5-(trifluoromethyl)benzo[d]oxazol-2-yl)-1-(1-(4-(dimethylamino)but-2-enoyl)pyrrolidin-3-yl)-1H-pyrazolo[3,4-d]pyrimidine-3-carboxamide]	10905.1
22.1	1.41 nM	CCN(C)C/C=C/C(=O)N1CC[C@@H](n2cc(C(=O)Nc3nc4cc(Cl)ccc4o3)c3c(N)ncnc32)C1 [Example 50, (R,E)-4-amino-N-(5-chlorobenzo[d]oxazol-2-yl)-7-(1-(4-(ethyl(methyl)amino)but-2-enoyl)pyrrolidin-3-yl) 7H-pyrrolo[2,3-d]pyrimidine-5-carboxamide]	>2767.8
20.6	1.2 nM	CC(C)N(C)C/C=C/C(=O)N1CC[C@@H](n2cc(C(=O)Nc3nc4cc(Cl)ccc4o3)c3c(N)ncnc32)C1 [Example 52, (R,E)-4-amino-N-(5-chlorobenzo[d]oxazol-2-yl)-7-(1-(4-(isopropyl(methyl)amino)but-2-enoyl)pyrrolidin-3-yl) 7H-pyrrolo[2,3-d]pyrimidine-5-carboxamide]	>3617.9
25.5	1.68 nM	Nc1ncnc2c1c(C(=O)Nc1nc3cc(Cl)ccc3o1)cn2[C@@H]1CCN(C(=O)/C=C/CN2CCCC2)C1 [Example 53, (R,E)-4-amino-N-(5-chlorobenzo[d]oxazol-2-yl)-7-(1-(4-(pyrrolidin-1-yl)but-2-enoyl)pyrrolidin-3-yl) 7H-pyrrolo[2,3-d]pyrimidine-5-carboxamide]	>1535.4
